Activity calls are given as the source filed them. The rule behind the calls is not given here.
Key:
[1] = Solubility in water; type: physicochemical; details: buffer
A-431 [2] = assay: Cytostatic activity against human A431 cells; type: functional, cell-based
[3] = Partition coefficient, log P of the compound; type: physicochemical; details: octanol/water
[4] = Dissociation constant, pKa at physiological pH; type: physicochemical
[5] = Cytostatic activity against human HT29-AK cells; type: functional
HT29-AK = assay: Cytotoxic activity against human HT29-AK cells assessed as cell survival at 5 uM; type: functional, cell-based
A-431 [6] = assay: Cytotoxic activity against human A431 cells assessed as cell survival at 5 uM; type: functional; details: read-out: Activity

Row | solubility [1] | IC50 (A-431 [2]) [µM] | logP [3] | pKa [4] | SMILES | IC60 [5] [µM] | Activity (HT29-AK) | viability at 5 µM (A-431 [6]) [%]
1 | Soluble | 2.1 | 2.62 | 5.3 | CCOc1ccc2c3c(nccc13)-c1ccc(N)cc1N2 | 1.35 |  | 
2 |  |  | 3.69 | 4.5 | Clc1ccc2c(c1)Nc1cccc3ccnc-2c13 |  |  | 
3 |  |  |  |  | CCOc1ccc2c3c(nccc13)-c1ccc3nc4c5cccnc5c5ncccc5c4nc3c1N2 |  | inactive | 85
